Experimental data taken from ChEMBL document CHEMBL3880442, “NHE3-binding compounds and methods for inhibiting phosphate transport” (2014).
Calls of active or inactive are those of the source. The rule behind the calls is not given here.

Tests used:
Rattus norvegicus [1] = test: Effect on sodium level in urine in Sprague-Dawley rat at 1 mg/kg administered via oral gavage measured after 16 hrs by gravimetric analysis relative to vehicle-treated control; type: functional
Rattus norvegicus [2] = test: Inhibition of NHE3-mediated intestinal phosphate uptake in rat at 10 mg/kg, po administered with 33-labeled Pi; type: functional, organism-based
Rattus norvegicus [3] = test: Inhibition of NHE3-mediated intestinal phosphate uptake in rat at 10 mg/kg, po administered with 33-labeled Pi in presence of glucose and calcium; type: functional, organism-based
Rattus norvegicus [4] = test: Inhibition of NHE3-mediated intestinal phosphate uptake in rat at 10 mg/kg, po administered with 33-labeled Pi in presence of calcium; type: functional, organism-based
Rattus norvegicus [5] = test: Reduction in urinary sodium level in rat at 10 mg/kg, po administered with 33-labeled Pi; type: functional, organism-based
Rattus norvegicus [6] = test: Effect on fecal form in rat at 10 mg/kg, po administered with 33-labeled Pi; type: functional, organism-based
Rattus norvegicus [7] = test: Effect on sodium level in urine in Sprague-Dawley rat at 3 mg/kg administered via oral gavage measured after 16 hrs by gravimetric analysis relative to vehicle-treated control; type: functional
Rattus norvegicus [8] = test: Effect on phosphate level in urine in Sprague-Dawley rat at 3 mg/kg administered via oral gavage measured after 16 hrs by gravimetric analysis relative to vehicle-treated control; type: functional
Rattus norvegicus [9] = test: Effect on sodium level in urine in Sprague-Dawley rat at 10 mg/kg administered via oral gavage measured after 16 hrs by gravimetric analysis relative to vehicle-treated control; type: functional
Rattus norvegicus [10] = test: Effect on phosphate level in urine in Sprague-Dawley rat at 10 mg/kg administered via oral gavage measured after 16 hrs by gravimetric analysis relative to vehicle-treated control; type: functional

Row | SMILES | Activity (Rattus norvegicus [9]) | Activity (Rattus norvegicus [10]) | further results
1 | CN1Cc2c(Cl)cc(Cl)cc2[C@H](c2cccc(S(=O)(=O)NCCOCCOCCNC(=O)Nc3ccc(NC(=O)NCCOCCOCCNS(=O)(=O)c4cccc([C@@H]5CN(C)Cc6c(Cl)cc(Cl)cc65)c4)cc3)c2)C1.Cl.Cl | – | – | Activity (Rattus norvegicus [1]): 22%; inhibition (Rattus norvegicus [2]): Active; inhibition (Rattus norvegicus [3]): Active; inhibition (Rattus norvegicus [4]): Active; Activity (Rattus norvegicus [5]): Active; Activity (Rattus norvegicus [6]): Active
2 | CN1Cc2c(Cl)cc(Cl)cc2[C@H](c2cccc(S(=O)(=O)NCCOCCOCCN(C)C(=O)NCCCN(CCCNC(=O)N(C)CCOCCOCCNS(=O)(=O)c3cccc([C@@H]4CN(C)Cc5c(Cl)cc(Cl)cc54)c3)CCCNC(=O)N(C)CCOCCOCCNS(=O)(=O)c3cccc([C@@H]4CN(C)Cc5c(Cl)cc(Cl)cc54)c3)c2)C1 | – | – | Activity (Rattus norvegicus [7]): 38%; Activity (Rattus norvegicus [8]): 68%
3 | CN1Cc2c(Cl)cc(Cl)cc2[C@H](c2cccc(S(=O)(=O)NCCOCCOCCNC(=O)NCCN(CCNC(=O)NCCOCCOCCNS(=O)(=O)c3cccc([C@@H]4CN(C)Cc5c(Cl)cc(Cl)cc54)c3)C(=O)CCOCCOCCOCCOCCOCCC(=O)N(CCNC(=O)NCCOCCOCCNS(=O)(=O)c3cccc([C@@H]4CN(C)Cc5c(Cl)cc(Cl)cc54)c3)CCNC(=O)NCCOCCOCCNS(=O)(=O)c3cccc([C@@H]4CN(C)Cc5c(Cl)cc(Cl)cc54)c3)c2)C1 | 47% | 69% | –
4 | CN1Cc2c(Cl)cc(Cl)cc2[C@H](c2cccc(S(=O)(=O)NCCOCCOCCNC(=O)CCC(CCC(=O)NCCOCCOCCNS(=O)(=O)c3cccc([C@@H]4CN(C)Cc5c(Cl)cc(Cl)cc54)c3)(CCC(=O)NCCOCCOCCNS(=O)(=O)c3cccc([C@@H]4CN(C)Cc5c(Cl)cc(Cl)cc54)c3)NC(=O)N3CCN(CCOCCO)CC3)c2)C1 | – | – | Activity (Rattus norvegicus [7]): 31%; Activity (Rattus norvegicus [8]): 34%
5 | CN1Cc2c(Cl)cc(Cl)cc2[C@@H](c2cccc(S(=O)(=O)NCCOCCOCCNC(=O)NCCCC(N)(CCCNC(=O)NCCOCCOCCNS(=O)(=O)c3cccc([C@@H]4CN(C)Cc5c(Cl)cc(Cl)cc54)c3)CCCNC(=O)NCCOCCOCCNS(=O)(=O)c3cccc([C@@H]4CN(C)Cc5c(Cl)cc(Cl)cc54)c3)c2)C1 | – | – | Activity (Rattus norvegicus [7]): 56%; Activity (Rattus norvegicus [8]): 50%
6 | O=C(O)CN(CCN(CC(=O)O)CC(=O)NCCOCCOCCNS(=O)(=O)c1ccc(O[C@H]2c3ccccc3C[C@@H]2N2CCCCC2)cc1)CC(=O)NCCOCCOCCNS(=O)(=O)c1ccc(O[C@H]2c3ccccc3C[C@@H]2N2CCCCC2)cc1 | 68 - 93% | 55 - 85% | –
7 | CN(CC(=O)NCCOCCOCCOCCN1CCN(c2ccc(-c3nc(NC(=N)N)nc4ccc(Cl)cc34)cc2)CC1)CC(=O)NCCOCCOCCOCCN1CCN(c2ccc(-c3nc(NC(=N)N)nc4ccc(Cl)cc34)cc2)CC1 | 66% | 101% | –
8 | CN1Cc2c(Cl)cc(Cl)cc2[C@H](c2cccc(S(=O)(=O)NCCOCCOCCOCCNC(=O)CN(CCOCCOCCN(CC(=O)NCCOCCOCCOCCNS(=O)(=O)c3cccc([C@@H]4CN(C)Cc5c(Cl)cc(Cl)cc54)c3)CC(=O)NCCOCCOCCOCCNS(=O)(=O)c3cccc([C@@H]4CN(C)Cc5c(Cl)cc(Cl)cc54)c3)CC(=O)NCCOCCOCCOCCNS(=O)(=O)c3cccc([C@@H]4CN(C)Cc5c(Cl)cc(Cl)cc54)c3)c2)C1 | 51% | 95% | –
9 | N=C(N)Nc1nc(-c2ccc(N3CCN(CCOCCOCCOCCNC(=O)CCOCCOCCOCCOCCOCCC(=O)NCCOCCOCCOCCN4CCN(c5ccc(-c6nc(NC(=N)N)nc7ccc(Cl)cc67)cc5)CC4)CC3)cc2)c2cc(Cl)ccc2n1 | 100% | – | –
10 | CN1Cc2c(Cl)cc(Cl)cc2[C@@H](c2cccc(S(=O)(=O)NCCOCCOCCNC(=O)NCCCCNC(=O)NCCOCCOCCNS(=O)(=O)c3cccc([C@H]4CN(C)Cc5c(Cl)cc(Cl)cc54)c3)c2)C1 | – | – | inhibition (Rattus norvegicus [2]): Active; inhibition (Rattus norvegicus [3]): Active; inhibition (Rattus norvegicus [4]): Active
11 | O=C(NCCCCNC(=O)NCCOCCOCCOCCNS(=O)(=O)c1ccc(O[C@H]2c3ccccc3C[C@@H]2N2CCCCC2)cc1)NCCOCCOCCOCCNS(=O)(=O)c1ccc(O[C@H]2c3ccccc3C[C@@H]2N2CCCCC2)cc1 | 33 - 79% | 43 - 52% | –
12 | O=C(NCCCCNC(=O)NCCOCCOCCNS(=O)(=O)c1ccc(O[C@H]2c3ccccc3C[C@@H]2N2CCCCC2)cc1)NCCOCCOCCNS(=O)(=O)c1ccc(O[C@H]2c3ccccc3C[C@@H]2N2CCCCC2)cc1 | 35 - 73% | 30 - 51% | –
13 | CN1Cc2c(Cl)cc(Cl)cc2[C@H](c2ccc(S(=O)(=O)NCCOCCOCCOCCNC(=O)COCC(=O)NCCOCCOCCOc3cccc(-c4nc(NC(=N)N)nc5ccc(Cl)cc45)c3)cc2)C1 | 87% | 150% | –
14 | CN(C)[C@H]1Cc2c(Cl)cc(Cl)cc2[C@@H]1Oc1ccc(S(=O)(=O)N(C)CCOCCOCCNC(=O)NCCCCNC(=O)NCCOCCOCCN(C)S(=O)(=O)c2ccc(O[C@H]3c4cc(Cl)cc(Cl)c4C[C@@H]3N(C)C)cc2)cc1 | 49% | 49% | –
15 | CN1Cc2c(Cl)cc(Cl)cc2[C@H](c2cccc(S(=O)(=O)NCCOCCOCCNC(=O)CCC(CCC(=O)NCCOCCOCCNS(=O)(=O)c3cccc([C@@H]4CN(C)Cc5c(Cl)cc(Cl)cc54)c3)(CCC(=O)NCCOCCOCCNS(=O)(=O)c3cccc([C@@H]4CN(C)Cc5c(Cl)cc(Cl)cc54)c3)NC(=O)N[C@@H](CC(=O)O)C(=O)O)c2)C1 | – | – | Activity (Rattus norvegicus [7]): 41%; Activity (Rattus norvegicus [8]): 51%
16 | CN1Cc2c(Cl)cc(Cl)cc2[C@@H](c2cccc(S(=O)(=O)NCCOCCOCCNC(=O)NCCCCNC(=O)NCCOCCOCCNS(=O)(=O)c3cccc([C@@H]4CN(C)Cc5c(Cl)cc(Cl)cc54)c3)c2)C1.Cl.Cl | 90% | – | –
